From patent publication EP2826473A1, “NOVEL USE OF PATCHOULOL” (Chengdu Huasun Group Inc., Ltd., priority 2012, dated 2013)
Converted amounts (≈) assume the structure as drawn. Where two headings read alike, the source gives them in different places.

Assays:
[1] = tested on: Enterococcus faecium; experiment: in vitro bacteriostatic activity, agar dilution MIC; type: cell-based; conditions: Enterococcus faecium, read-out: MIC
[2] = tested on: Staphylococcus haemolyticus; experiment: as above; type: cell-based
[3] = tested on: Enterobacter cloacae; experiment: as above; type: cell-based
[4] = tested on: termites; conditions: in vivo; cited from earlier work
[5] = tested on: Enterococcus faecalis; experiment: in vitro bacteriostatic activity, agar dilution MIC; type: cell-based; conditions: Enterococcus faecalis, read-out: MIC
[6] = tested on: learning and memory ability; conditions: mice, scopolamine, intragastric 80 and 40 mg/kg; cited from earlier work
[7] = tested on: Escherichia coli E^-; experiment: in vitro bacteriostatic activity, agar dilution MIC; type: cell-based
[8] = tested on: Klebsiella pneumonia; experiment: in vitro bacteriostatic activity, agar dilution MIC, quality control strain and summary; type: cell-based; conditions: Klebsiella pneumoniae
[9] = tested on: Klebsiella pneumonia E^+; experiment: in vitro bacteriostatic activity, agar dilution MIC; type: cell-based; conditions: Klebsiella pneumoniae
[10] = tested on: Streptococcus pneumoniae; experiment: as above; type: cell-based
[11] = tested on: Staphylococcus sciuri; experiment: as above; type: cell-based; conditions: Mammaliicoccus sciuri; Staphylococcus sciuri 12-1
[12] = tested on: influenza virus FM1; conditions: 30 mg/kg; cited from earlier work
[13] = tested on: Megasphaera elsdenii; experiment: in vitro bacteriostatic activity, agar dilution MIC; type: cell-based
[14] = tested on: carrageenan-induced paw edema; conditions: cited from earlier work
[15] = tested on: Escherichia coli; experiment: in vitro bacteriostatic activity, agar dilution MIC, quality control strain and summary; type: cell-based
[16] = tested on: Staphylococcus wameri; experiment: in vitro bacteriostatic activity, agar dilution MIC; type: cell-based
[17] = tested on: Kurthia gibsonii; experiment: as above; type: cell-based
[18] = tested on: Gram-positive bacteria and Gram-negative bacteria; experiment: in vitro bacteriostatic activity, summary of Tables 1-5; type: cell-based; conditions: read-out: MIC values
Experimental: Preparation of drug-containing flat plates: patchoulol was diluted by coubling double dilution in DMSO, and 1 ml and 14 ml of sterile MH culture media in different gradient concentrations were respectively added to the disposable sterile petri dishes. Tested drugs were respectively diluted to different gradient concentrations from 768 to 0.006 µg/ml, fully mixed, and dried to reserve. As mentioned above, replacing tested drug with same amount of normal saline was used to prepare positive control plates.
Preparation of bacterial liquid: Tested strains and drug-sensitive strains used for quality control were diluted with stroke-physiological saline solution to the concentration of 10^6 CFU/ml. […]
Staphylococcus aureus and Staphylococcus epidermidis were cultured at 35-37°C for 18-24 h in MH media (containing 2% NaCl); Streptococcus pneumonia was cultured in brain heart infusion agar media (containing 5% goat blood) within an incubator under 5% CO2 at 35°C for 24 hours; Gram-negative bacteria and other strains were placed in an incubator at 35-37°C and cultured for 18-20 h; Results were observed and recorded. […]

[19] = tested on: Corynebacterium; experiment: in vitro bacteriostatic activity, agar dilution MIC; type: cell-based; conditions: Coryneba cterium 12-1

`C[C@H]1CC[C@@]2(O)C(C)(C)[C@@H]3CC[C@@]2(C)[C@H]1C3` (stereo in doubt) [PC, (1R,4S,4aS,6R,8aS)-octahydro-4,8a,9,9-tetramethyl-1,6-methanonaphthalen-1(2H)-ol] showed an MIC ([1]; ATCC33186, Enterococcus faecium ATCC 33186) of 128 µg/mL (≈ 576 µM), an MIC ([1]; Enterococcus faecium 12-7) of 64 µg/mL (≈ 288 µM) and an MIC ([1]; Enterococcus faecium 12-8) of 64 µg/mL (≈ 288 µM). For the same compound, the MIC ([1]; Enterococcus faecium 12-9) was 64 µg/mL (≈ 288 µM), the MIC ([1]; Enterococcus faecium 12-10) was 32 µg/mL (≈ 144 µM) and the MIC ([1]; Enterococcus faecium 12-11) was 32 µg/mL (≈ 144 µM). It also gave an MIC ([1]; Enterococcus faecium 12-12) of 64 µg/mL (≈ 288 µM), an MIC ([1]; Enterococcus faecium 12-13) of 64 µg/mL (≈ 288 µM) and an MIC ([1]; Enterococcus faecium 12-14) of 64 µg/mL (≈ 288 µM). The MIC ([1]; Enterococcus faecium 12-15) was 32 µg/mL (≈ 144 µM), the MIC ([1]; Enterococcus faecium 12-16) was 32 µg/mL (≈ 144 µM) and the MIC [2] was 100 µg/mL (≈ 450 µM). For the same compound, the MIC ([3]; Enterobacter cloacae 12-1, read-out: MIC) was 50 µg/mL (≈ 225 µM), the MIC ([3]; Enterobacter cloacae 12-2) was 50 µg/mL (≈ 225 µM) and the effect on termites [4] was “obviously toxic and removal effect”. The MIC ([5]; ATCC29212, Enterococcus faecalis ATCC 29212) was 128 µg/mL (≈ 576 µM), the MIC ([5]; ATCC51299, Enterococcus faecalis (high endurance) ATCC 51299) was 128 µg/mL (≈ 576 µM) and the MIC ([5]; Enterococcus faecalis 12-11) was > 128 µg/mL. The MIC ([5]; Enterococcus faecalis 12-12) was 32 µg/mL (≈ 144 µM), the MIC ([5]; Enterococcus faecalis 12-13) was 128 µg/mL (≈ 576 µM) and the MIC ([5]; Enterococcus faecalis 12-14) was 64 µg/mL (≈ 288 µM). For the same compound, the MIC ([5]; Enterococcus faecalis 12-17) was 128 µg/mL (≈ 576 µM), the MIC ([5]; Enterococcus faecalis 12-18) was 128 µg/mL (≈ 576 µM) and the MIC ([5]; Enterococcus faecalis 12-19) was 128 µg/mL (≈ 576 µM). It also gave an MIC ([5]; Enterococcus faecalis 12-20) of 128 µg/mL (≈ 576 µM), an MIC ([5]; Enterococcus faecalis 12-21) of 64 µg/mL (≈ 288 µM) and an MIC ([5]; Enterococcus faecalis 12-22) of 64 µg/mL (≈ 288 µM). For the same compound, the “learning and memory ability” value [6] was “enhance learning and memory ability”, the MIC ([7]; Escherichia coli E^- 10-12) was > 768 µg/mL and the MIC ([7]; Escherichia coli E^- 10-18) was > 768 µg/mL. For the same compound, the MIC ([8]; ATCC700603, Klebsiella pneumonia ATCC 700603, read-out: MIC) was > 768 µg/mL, the MIC ([8]; summary, Klebsiella pneumonia ESBLs^-/ESBLs^+, read-out: MIC values) was ≥ 768 µg/mL and the MIC ([9]; Klebsiella pneumonia E^+ 10-2) was > 768 µg/mL. The MIC ([9]; Klebsiella pneumonia E^+ 10-6) was > 768 µg/mL, the MIC ([10]; ATCC49619, Streptococcus pneumonia ATCC 49619) was 200 µg/mL (≈ 899 µM) and the MIC ([10]; Streptococcus pneumonia 12-6) was 100 µg/mL (≈ 450 µM). For the same compound, the MIC ([10]; Streptococcus pneumonia 12-7) was 200 µg/mL (≈ 899 µM), the MIC ([10]; Streptococcus pneumonia 12-8) was 100 µg/mL (≈ 450 µM) and the MIC ([10]; Streptococcus pneumonia 12-9) was 100 µg/mL (≈ 450 µM). It also gave an MIC ([10]; Streptococcus pneumonia 12-10) of 200 µg/mL (≈ 899 µM), an MIC ([10]; Streptococcus pneumoniae 12-1) of 200 µg/mL (≈ 899 µM) and an MIC ([10]; Streptococcus pneumoniae 12-2) of 100 µg/mL (≈ 450 µM). The MIC ([10]; Streptococcus pneumoniae 12-3) was 200 µg/mL (≈ 899 µM), the MIC ([10]; Streptococcus pneumoniae 12-4) was 200 µg/mL (≈ 899 µM) and the MIC ([10]; Streptococcus pneumoniae 12-5) was 100 µg/mL (≈ 450 µM). For the same compound, the MIC [11] was 50 µg/mL (≈ 225 µM), the “survival rate of infected mice” value [12] was “improve the survival rate” and the MIC ([13]; Megasphaera elsdenii 12-1) was 50 µg/mL (≈ 225 µM). For the same compound, the MIC ([13]; Megasphaera elsdenii 12-2) was 25 µg/mL (≈ 112 µM), the MIC ([13]; Megasphaera elsdenii 12-3) was 50 µg/mL (≈ 225 µM) and the MIC ([13]; Megasphaera elsdenii 12-4) was 50 µg/mL (≈ 225 µM). The “content of NO, PGE-2, TNF-α in the hind paw” value ([14]; inflammatory rats, high dosage) was “significantly reduce”, the carrageenan-induced paw edema ([14]; rats, dose-dependent) was “effectively inhibit” and the MIC ([15]; ATCC25922, Escherichia coli ATCC 25922, read-out: MIC) was 768 µg/mL (≈ 3450 µM). The MIC ([15]; summary, Escherichia coli ESBLs /ESBLs^+, read-out: MIC values) was ≥ 768 µg/mL, the MIC [16] was 50 µg/mL (≈ 225 µM) and the MIC ([17]; Kurthia gibsonii 12-1, read-out: MIC) was 50 µg/mL (≈ 225 µM). It also gave an MIC ([17]; Kurthia gibsonii 12-2) of 50 µg/mL (≈ 225 µM), an MIC [18] of 1.5 to 200 µg/mL (≈ 6.75 to 899 µM) and an MIC [19] of 12.5 µg/mL (≈ 56.2 µM).
